“And” between values parts separate entries of the source, which are not always exact repeats. Equal entries are not always repeated. Where two headings read alike, the source gives them in different places.
Tested on: panel of 66 cancer cell lines
Assay: cancer cell line screen, proliferation assay (ATPlite, 72 h)
Format: cell-based, human
Conditions: for raw signal, dose-response (Figure S7a): rep1, rep2, listed as AVX420; for IC50: Homo sapiens
Excerpt: Targeting specific molecular vulnerabilities in cancer is considered a key approach to reducing the adverse effects of chemotherapy. However, the events that govern the susceptibility to suppression of the cPLA2α in cancer remain largely unexplored. We therefore took the approach of screening the antiproliferative activity of AVX420 in a panel of 66 cancer cell lines (hereafter referred to as the cancer cell line screen or CCLS) to allow us to investigate molecular and genetic vulnerabilities to the drug.
Screening of compound activities in 66 cancer cell lines was carried out at the Netherlands Translation Research Center. Briefly, proliferation assays were performed 72 h after compound addition using ATPlite 1step reagent (Perkin Elmer). IC50s calculated by non-linear regression analysis were used as a measure of compound activity for investigating associations with genetic factors. A complete description of the laboratory and data analysis methods are available in the Supplementary Information file (Supplemental Methods: Cancer Cell Line Screening).
Cancer cell line screening
Cell proliferation assays
All cell lines were from the American Type Culture Collection (ATCC) Manassas, Virginia (US) and maintained under ATCC-recommended protocols and within 9 pas- […]
DMSO at -80°C until one hour before use. Cells exposed within one hour after thaw-ing of the compound stocks. Final compound concentration range in the assay was 10 […]
cated by supplier. Compounds were dissolved in 100 % DMSO and stored at room temperature. Final concentration of the reference compounds in the assay was 3.16x10-5 M to 3.16x10-9 M. The final DMSO concentration during incubation was […]
Cell lines were plated in Advanced RPMI 1640 (Gibco, ref 12633-012) cell culture medium, containing 1% Glutamax solution (Gibco, ref 35050-038), 0.4% Pen Strep solution (Gibco, ref 15140-122) and bovine serum. The cPLA2α inhibitors were tested in 0.5% bovine serum (HyClone, ref SH30072.03) with the exception of769-P, A-204, BT-549, SR, T98G, which were tested in the presence of 1.0% serum and A-704 and LNCaP FGS, which were tested in the in the presence of 10% serum. Reference com-pounds were all tested in the presence of 10% bovine serum.
Cells were dispensed in a 384-well plate, at a concentration of 200 - 3200 cells per well, depending on the cell line, in 45 μL medium. Plated cells were incubated in a humidified atmosphere of 5% CO2 at 37 °C. After 24 hours, 5 μL of compound dilu-tion was added and plates were further incubated for another 72 hours. After 72 hours, 25 μL of ATPlite 1Step™ (PerkinElmer) solution was added to each well, and subse-quently shaken for 2 minutes. After 10 minutes of incubation in the dark, the lumines-cence was recorded on an Envision multimode reader (PerkinElmer).
Cell growth control. The cellular doubling times of all cell lines are calculated from the t = 0 hours and t = 72 hours growth signals of the untreated cells. If the doubling time is out of specification (0.5 – 2.0 times deviating from historic average) the assay […]
IC50s were calculated by non-linear regression using IDBS XLfit 5. The percentage growth after 72h (%-growth) was calculated as follows: 100% x (luminescence t = 72h / luminescence untreated,t=72h). This was fitted to the 10log compound concentration (conc) by a 4-parameter logistics curve: %-growth = bottom + (top – bottom) / (1+ 10(logIC50 – conc)*hill)), where hill is the Hill-coefficient, and bottom and top the asymptotic mini-mum and maximum cell growth that the compound allows in that assay.
All analysis were performed in the statistical software package R and visualized using GraphPad Prism version 10.0 .0

CCCCCCCOc1ccc(OCC(=O)c2nc(C(=O)OC)cs2)cc1 [GK420]
average panel 10logIC50 (10log of IC50 in nM, panel average): 4.17 | pIC50 (769P, kidney): 4,561 | pIC50 (786O, kidney): 4,867 | pIC50 (A172, central_nervous_system): 4,692 | pIC50 (A204, soft_tissue): 4,646 | pIC50 (A375, skin): 4,764 | pIC50 (A388, cervix): 4,776 | pIC50 (A427, lung): 4,923 | pIC50 (A498, kidney): 4,615 | pIC50 (A549, lung): 4,624 | pIC50 (ACHN, kidney): 4,799 | pIC50 (AN3CA, endometrium): 4,941 | pIC50 (AU565, breast): 4,836 | pIC50 (AsPC1, pancreas): 4,597 | pIC50 (BT20, breast): 4,474 | pIC50 (BT549, breast): 4,818 | pIC50 (BxPC3, pancreas): 4,715 | pIC50 (CAL27, upper_aerodigestive_tract): 4,804 | raw signal, dose-response (Figure S7a) (CCRF-CEM, Log10 M -4): 5160 and 4973 | raw signal, dose-response (Figure S7a) (CCRF-CEM, Log10 M -4.5): 1680 and 1133 | raw signal, dose-response (Figure S7a) (CCRF-CEM, Log10 M -6): 1223867 and 1721613 | raw signal, dose-response (Figure S7a) (CCRF-CEM, Log10 M -6.5): 5260280 and 5359267 | raw signal, dose-response (Figure S7a) (CCRF-CEM, Log10 M -7): 5505373 and 6147053 | raw signal, dose-response (Figure S7a) (CCRF-CEM, Log10 M -7.5): 5656213 and 5825533 | raw signal, dose-response (Figure S7a) (CCRF-CEM, Log10 M -8): 5419560 and 5847920 | pIC50 (COLO829, unknown): 4,761 | pIC50 (Daoy, central_nervous_system): 4,867 | pIC50 (DoTc24510, cervix): 4,743 | pIC50 (HCT15, large_intestine): 4,945 | pIC50 (HCT116, large_intestine): 4,795 | IC50 (769-P, read-out: IC50): 27.5 µM | IC50 (786-0, 786-O, read-out: IC50): 13.6 µM | IC50 (72 h, panel average, 72 h, read-out: average IC50 in the cancer cell line screen): 18.4 µM | IC50 (A 172, A-172, read-out: IC50): 20.3 µM | IC50 (A204, A-204, read-out: IC50): 22.6 µM | IC50 (A388, read-out: IC50): 16.8 µM | IC50 (A498, A-498, read-out: IC50): 24.3 µM | IC50 (A549, A-549, read-out: IC50): 23.8 µM | IC50 (A704, A704, kidney, read-out: pIC50 (converted)): 34 µM | IC50 (A704, A-704, read-out: IC50): > 100 µM | IC50 (A-375, A375, read-out: IC50): 17.2 µM | IC50 (A-427, A-427, read-out: IC50): 11.9 µM | IC50 (ACHN, read-out: IC50): 15.9 µM | IC50 (AN3-CA, AN3 CA, read-out: IC50): 11.4 µM | IC50 (ASPC1, AsPC-1, read-out: IC50): 25.3 µM | IC50 (AU565, AU-565, read-out: IC50): 14.6 µM | IC50 (BT-20, BT-20, read-out: IC50): 33.6 µM | IC50 (BT-549, BT-549, read-out: IC50): 15.2 µM | IC50 (BXPC-3, BxPC-3, read-out: IC50): 19.3 µM | IC50 (C-33-A, C33A, cervix, read-out: pIC50 (converted)): 1.74 µM | IC50 (C-33-A, C-33 A, read-out: IC50): 1.74 µM | IC50 (CAL-27, CAL 27, read-out: IC50): 15.7 µM | IC50 (CCRF-CEM, CCRFCEM, blood, read-out: pIC50 (converted)): 0.708 µM | IC50 (CCRF-CEM, read-out: IC50): 0.708 µM | IC50 (COLO 205, COLO 205, read-out: IC50): 22.3 µM | IC50 (COLO-829, COLO 829, read-out: IC50): 17.3 µM | IC50 (DLD-1, DLD1, large_intestine, read-out: pIC50 (converted)): 13.8 µM | IC50 (DLD-1, DLD-1, read-out: IC50): 13.8 µM | IC50 (DU-145, DU 145, read-out: IC50): 25.3 µM | IC50 (Daoy, read-out: IC50): 13.6 µM | IC50 (DoTc2-4510, DoTc2 4510, read-out: IC50): 18.1 µM | IC50 (FaDu, upper_aerodigestive_tract, read-out: pIC50 (converted)): 25.7 µM | IC50 (FaDu, read-out: IC50): 25.7 µM | IC50 (HCT-15, HCT-15, read-out: IC50): 11.4 µM | IC50 (HCT-116, HCT 116, read-out: IC50): 16 µM | IC50 (Hs-578T, Hs 578T, read-out: IC50): 14.7 µM | IC50 (J82, J82, read-out: IC50): 19.2 µM | IC50 (Jurkat E6.1, Jurkat E6.1, read-out: IC50): 0.569 µM | IC50 (K562, K-562, read-out: IC50): 15.3 µM | IC50 (KU812, KU812, read-out: IC50): 9.13 µM | IC50 (LNCaP, LNCaP FGC, read-out: IC50): 91.7 µM | IC50 (LS174T, LS 174T, read-out: IC50): 20.3 µM | IC50 (LoVo, read-out: IC50): 16.6 µM | IC50 (MCF7, MCF7, read-out: IC50): 14.7 µM | IC50 (MG-63, MG-63, read-out: IC50): 22.7 µM | IC50 (MIA PaCa-2, MIA PaCa-2, read-out: IC50): 13.1 µM | IC50 (MOLT-4, MOLT-4, read-out: IC50): 4.07 µM | IC50 (MeWo, read-out: IC50): 19.5 µM | IC50 (NCI-H82, NCI-H82, read-out: IC50): 4.84 µM | IC50 (NCI-H460, NCI-H460, read-out: IC50): 32.5 µM | IC50 (OVCAR-3, OVCAR-3, read-out: IC50): 13.7 µM | IC50 (PA1, ovary, read-out: pIC50 (converted)): 2.88 µM | IC50 (PA-1, PA-1, read-out: IC50): 2.88 µM | IC50 (RKO, read-out: IC50): 10.1 µM | IC50 (RPMI-7951, RPMI-7951, read-out: IC50): 14.1 µM | IC50 (RT-4, RT4, read-out: IC50): 33.4 µM | IC50 (SHP77, SHP-77, read-out: IC50): 13.8 µM

Source: publication PMC11696576, “Next generation thiazolyl ketone inhibitors of cytosolic phospholipase A2 α for targeted cancer therapy” (Nature Communications, 2025)
